From US9540363B2, “Solid oral formulations and crystalline forms of an inhibitor of apoptosis protein” (Novartis AG, priority 2009, dated 2017)

Assays:
[1] = Water sorption and desorption (hygroscopicity) of crystalline forms; type: physicochemical; conditions: for maximum water uptake: at 25° C. up to 95% RH; for hygroscopicity: crystalline solid form
Excerpt: The crystalline forms of compound of Formula (I), its salts and solvates can be characterized by a number of methods, including but not limited to, Powder X-Ray diffraction (PXRD), simulated powder X-ray patterns (Yin. S.; Scaringe, R. P.; DiMarco, J.; Galella, M. and Gougoutas, J. Z., American Pharmaceutical Review, 2003, 6, 2, 80), Differential scanning calorimetry (DSC) experiments, Solid-state C-13 NMR measurements, (W. L. Earl and D. L. VanderHart, J. Magn. Reson., 1982, 48, 35-54), Raman spectroscopy, Infra-red spectroscopy, Moisture sorption isotherms (VTI—variable temperature isotherms), and hot stage techniques.
(§1) The crystalline forms HA, A, B, C, and D obtained in Examples 11-16 are analyzed by various standard methods: XPRD, DSC, TGA, Microscopy. Water sorption and desorption is also examined.

[2] = Heating of the hemihydrate form (dehydration and form conversion); type: physicochemical; conditions: upon heating
Procedure: Form B can be obtained by heating the hemihydrate Form HA above 100° C. over a period of time to remove the water completely, by equilibrating the hemihydrate Form HA in heptane at 50° C., or by cooling crystallization from methyl isobutyl ketone.
as §1

Row | SMILES | maximum water uptake [1] | hygroscopicity [1] | heating temperature at which the form loses water and converts to Form B [2] | water content ([1]; between 10% relative humidity (RH) and 70% RH) | additional moisture taken up ([1]; from 70% RH to 95% RH)
1 | CN[C@@H](C)C(=O)N[C@H](C(=O)N1CCC[C@H]1c1nc(C(=O)c2ccc(F)cc2)cs1)C1CCCCC1 [Form A, (S)—N—((S)-1-cyclohexyl-2-{(S)-2-[4-(4-fluoro-benzoyl)-thiazol-2-yl]-pyrrolidin-1-yl}-2-oxo-ethyl)-2-methylamino-propionamide] | about 0.8% | slightly hygroscopic |  |  | 
2 | CN[C@@H](C)C(=O)N[C@H](C(=O)N1CCC[C@H]1c1nc(C(=O)c2ccc(F)cc2)cs1)C1CCCCC1 [Form B, (S)—N—((S)-1-cyclohexyl-2-{(S)-2-[4-(4-fluoro-benzoyl)-thiazol-2-yl]-pyrrolidin-1-yl}-2-oxo-ethyl)-2-methylamino-propionamide] | about 0.5% | slightly hygroscopic |  |  | 
3 | CN[C@@H](C)C(=O)N[C@H](C(=O)N1CCC[C@H]1c1nc(C(=O)c2ccc(F)cc2)cs1)C1CCCCC1 [Form C, (S)—N—((S)-1-cyclohexyl-2-{(S)-2-[4-(4-fluoro-benzoyl)-thiazol-2-yl]-pyrrolidin-1-yl}-2-oxo-ethyl)-2-methylamino-propionamide] | less than 0.2% | nonhygroscopic |  |  | 
4 | CN[C@@H](C)C(=O)N[C@H](C(=O)N1CCC[C@H]1c1nc(C(=O)c2ccc(F)cc2)cs1)C1CCCCC1 [Form D, (S)—N—((S)-1-cyclohexyl-2-{(S)-2-[4-(4-fluoro-benzoyl)-thiazol-2-yl]-pyrrolidin-1-yl}-2-oxo-ethyl)-2-methylamino-propionamide] | less than 0.5% | slightly hygroscopic |  |  | 
5 | CN[C@@H](C)C(=O)N[C@H](C(=O)N1CCC[C@H]1c1nc(C(=O)c2ccc(F)cc2)cs1)C1CCCCC1 [Form HA, (S)—N—((S)-1-cyclohexyl-2-{(S)-2-[4-(4-fluoro-benzoyl)-thiazol-2-yl]-pyrrolidin-1-yl}-2-oxo-ethyl)-2-methylamino-propionamide] |  | slightly hygroscopic | above 100 °C | ~1.7% | ~0.4%
